# Where two headings read alike, the source gives them in different places.
# Tests used:
# Format in all cases: cell-based
# [1] = system: Staphylococcus aureus MRSA; assay: Minimum inhibitory concentration (MIC) in vitro, agar dilution method; conditions: for MIC: read-out: MIC
# Text: (§1) Hydrates Samples: • The 1/2 hydrates prepared according to Example 2; • Content (purity % wt): 99.0%; • The 1/12 hydrates prepared according to Example 253; • Content (purity % wt): 98.9%; • The 2/7 hydrates prepared according to Example 106; • Content (purity % wt): 98.8%; • The 2/5 hydrates prepared according to Example 162; • Content (purity % wt): 99.0%; • The 3/4 hydrates prepared according to Example 337; • Content (purity % wt): 98.8%; • Preparation: dissolved in DMSO, and further diluted with sterile distilled water to desired concentration. • The hydrates samples were supplied by Sichuan Beilike Biotechnology LTD.
# (§2) Anhydrous Sample: • The anhydrous compounds prepared according to Example 1. • Content (purity % wt): 98.6%; • Preparation: dissolved in DMSO, and further diluted with sterile distilled water to desired concentration; • The anhydrous sample was supplied by Sichuan Beilike Biotechnology LTD.
# (§3) Control Samples • Vancomycin: provided by Sichuan Beilike Biotechnology LTD, purchased from Eli Lilly Japan K.K. • Lot No.: WM16151 (production date: Apr. 10, 2007, expiration date: Apr. 9, 2009). • Specification: 500 mg/bottle; solubility (physicochemical properties): soluble in water. • Linezolid (LZ): provided by Sichuan Beilike Biotechnology LTD.
# (§4) Bacteria Strains • Clinically isolated strains: clinically isolated bacterial pathogens collected in Sichuan and Beijing areas from March 2007 to May 2008. • Species include: Staphylococcus aureus MRSA, Staphylococcus aureus MSSA, S. epidermidis MRSE, S. epidermidis MSSE, E. feacalis, and E. feacium, a total of 51 strains. • Quality control strains: Staphylococcus aureus […] strain kept in Sichuan Industrial Institute of Antibiotics, purchased from the medical testing center of the Ministry of Health, China.
# (§5) Experimental Method: • Measurement of the minimum inhibitory concentration (MIC) in vitro: • The minimum inhibitory concentration (MIC) of each test sample against test strains was measured by using the agar dilution method recommended by the U.S. National Committee for Clinical Laboratory Standards (CLSI/NCCIs).
# (§6) Based on the CLSI/NCCL's testing standard with respect to vancomycin and linezolid (see Table 6), the minimum inhibitory concentration (MIC) values of every strain were reported, and the MIC50 (the concentration that inhibits 50% of the different strains of bacteria), MIC90 (the concentration that inhibits 90% of the different strains of bacteria), and MICrange (the range of the MIC value of the tested strains) were observed.
# [2] = system: Staphylococcus aureus MSSA; assay: as above; conditions: for MIC: read-out: MIC
# Text: as §1, §2, §3, §4, §5, §6
# E. feacium = assay: as above
# Text: as §1, §2, §3, §4, §5, §6
# S. epidermidis MRSE = assay: as above; conditions: for MIC: read-out: MIC
# Text: as §1, §2, §3, §4, §5, §6
# S. epidermidis MSSE = assay: as above; conditions: for MIC: read-out: MIC
# Text: as §1, §2, §3, §4, §5, §6
# E. feacalis = assay: as above
# Text: as §1, §2, §3, §4, §5, §6
# Staphylococcus aureus = assay: Minimum inhibitory concentration (MIC) in vitro, agar dilution method, quality control strain; conditions: Staphylococcus aureus, ATCC27853, strain S. AT C C25923 (Table 7 No. 1); read-out: MIC
# Text: as §1, §2, §3, §4, §5, §6
smiles,measurement,setting,value
"CC(=O)NC[C@H]1CN(c2ccc(N3CCOCC3)c(F)c2)C(=O)O1 [Linezolid, reference compound]",MICrange,"[1]; S. MRSA (10 strains), clinically isolated",1 to 2 µg/mL
same,MIC50,"[1]; Staphylococcus aureus, MRSA, S. MRSA (10 strains), clinically isolated, read-out: MIC50",2 µg/mL
same,MIC90,"[1]; Staphylococcus aureus, MRSA, S. MRSA (10 strains), clinically isolated, read-out: MIC90",2 µg/mL
same,MIC,"[1]; Staphylococcus aureus, MRSA, strain S. MRSA 29 (Table 7 No. 15)",1 µg/mL
same,MIC,"[1]; Staphylococcus aureus, MRSA, strain S. MRSA 101 (Table 7 No. 14)",1 µg/mL
same,MIC,"[1]; Staphylococcus aureus, MRSA, strain S. MRSA 201 (Table 7 No. 13)",2 µg/mL
same,MIC,"[1]; Staphylococcus aureus, MRSA, strain S. MRSA B27 (Table 7 No. 21)",2 µg/mL
same,MIC,"[1]; Staphylococcus aureus, MRSA, strain S. MRSA B105 (Table 7 No. 17)",2 µg/mL
same,MIC,"[1]; Staphylococcus aureus, MRSA, strain S. MRSA B143 (Table 7 No. 19)",1 µg/mL
same,MIC,"[1]; Staphylococcus aureus, MRSA, strain S. MRSA B151 (Table 7 No. 20)",2 µg/mL
same,MIC,"[1]; Staphylococcus aureus, MRSA, strain S. MRSA B164 (Table 7 No. 16)",2 µg/mL
same,MIC,"[1]; Staphylococcus aureus, MRSA, strain S. MRSA B199 (Table 7 No. 22)",2 µg/mL
same,MIC,"[1]; Staphylococcus aureus, MRSA, strain S. MRSA B617 (Table 7 No. 18)",1 µg/mL
same,MICrange,"[2]; S. MSSA (11 strains), clinically isolated",1 to 2 µg/mL
same,MIC50,"[2]; Staphylococcus aureus, MSSA, S. MSSA (11 strains), clinically isolated, read-out: MIC50",2 µg/mL
same,MIC90,"[2]; Staphylococcus aureus, MSSA, S. MSSA (11 strains), clinically isolated, read-out: MIC90",2 µg/mL
same,MIC,"[2]; Staphylococcus aureus, MSSA, strain S. MSSA 123 (Table 7 No. 3)",2 µg/mL
same,MIC,"[2]; Staphylococcus aureus, MSSA, strain S. MSSA 187 (Table 7 No. 7)",2 µg/mL
same,MIC,"[2]; Staphylococcus aureus, MSSA, strain S. MSSA 195 (Table 7 No. 6)",2 µg/mL
same,MIC,"[2]; Staphylococcus aureus, MSSA, strain S. MSSA 195 (Table 7 No. 12)",2 µg/mL
same,MIC,"[2]; Staphylococcus aureus, MSSA, strain S. MSSA 201 (Table 7 No. 11)",2 µg/mL
same,MIC,"[2]; Staphylococcus aureus, MSSA, strain S. MSSA 232 (Table 7 No. 2)",2 µg/mL
same,MIC,"[2]; Staphylococcus aureus, MSSA, strain S. MSSA 275 (Table 7 No. 10)",2 µg/mL
same,MIC,"[2]; Staphylococcus aureus, MSSA, strain S. MSSA 466 (Table 7 No. 8)",1 µg/mL
same,MIC,"[2]; Staphylococcus aureus, MSSA, strain S. MSSA 519 (Table 7 No. 9)",2 µg/mL
same,MIC,"[2]; Staphylococcus aureus, MSSA, strain S. MSSA 520 (Table 7 No. 4)",2 µg/mL
same,MIC,"[2]; Staphylococcus aureus, MSSA, strain S. MSSA 580 (Table 7 No. 5)",2 µg/mL
same,MIC50,E. feacium,2 µg/mL
same,MIC90,E. feacium,4 µg/mL
same,MICrange,"E. feacium; E. feacium (5 strains), clinically isolated",1 to 4 µg/mL
same,MIC,E. feacium; strain Efm 98 (Table 8 No. 21),1 µg/mL
same,MIC,E. feacium; strain Efm 171 (Table 8 No. 25),2 µg/mL
same,MIC,E. feacium; strain Efm 197 (Table 8 No. 22),2 µg/mL
same,MIC,E. feacium; strain Efm N3 (Table 8 No. 23),1 µg/mL
same,MIC,E. feacium; strain Efm N4 (Table 8 No. 24),4 µg/mL
same,MICrange,"S. epidermidis MRSE; S. ep MRSE (10 strains), clinically isolated",0.5 to 2 µg/mL
same,MIC50,"S. epidermidis MRSE; Staphylococcus epidermidis, MRSE, S. ep MRSE (10 strains), clinically isolated, read-out: MIC50",1 µg/mL
same,MIC90,"S. epidermidis MRSE; Staphylococcus epidermidis, MRSE, S. ep MRSE (10 strains), clinically isolated, read-out: MIC90",2 µg/mL
same,MIC,"S. epidermidis MRSE; Staphylococcus epidermidis, MRSE, strain S. ep MRSE4 (Table 8 No. 9)",1 µg/mL
same,MIC,"S. epidermidis MRSE; Staphylococcus epidermidis, MRSE, strain S. ep MRSE20 (Table 8 No. 6)",1 µg/mL
same,MIC,"S. epidermidis MRSE; Staphylococcus epidermidis, MRSE, strain S. ep MRSE87 (Table 8 No. 13)",2 µg/mL
same,MIC,"S. epidermidis MRSE; Staphylococcus epidermidis, MRSE, strain S. ep MRSE90 (Table 8 No. 10)",2 µg/mL
same,MIC,"S. epidermidis MRSE; Staphylococcus epidermidis, MRSE, strain S. ep MRSE101 (Table 8 No. 7)",0.5 µg/mL
same,MIC,"S. epidermidis MRSE; Staphylococcus epidermidis, MRSE, strain S. ep MRSE105 (Table 8 No. 11)",1 µg/mL
same,MIC,"S. epidermidis MRSE; Staphylococcus epidermidis, MRSE, strain S. ep MRSE140 (Table 8 No. 14)",1 µg/mL
same,MIC,"S. epidermidis MRSE; Staphylococcus epidermidis, MRSE, strain S. ep MRSE142 (Table 8 No. 12)",1 µg/mL
same,MIC,"S. epidermidis MRSE; Staphylococcus epidermidis, MRSE, strain S. ep MRSE210 (Table 8 No. 15)",1 µg/mL
same,MIC,"S. epidermidis MRSE; Staphylococcus epidermidis, MRSE, strain S. ep MRSE211 (Table 8 No. 8)",1 µg/mL
same,MICrange,"S. epidermidis MSSE; S. ep MSSE (10 strains), clinically isolated",0.5 to 2 µg/mL
same,MIC50,"S. epidermidis MSSE; Staphylococcus epidermidis, S. ep MSSE (10 strains), clinically isolated, read-out: MIC50",1 µg/mL
same,MIC90,"S. epidermidis MSSE; Staphylococcus epidermidis, S. ep MSSE (10 strains), clinically isolated, read-out: MIC90",2 µg/mL
same,MIC,"S. epidermidis MSSE; Staphylococcus epidermidis, strain S. ep MSSE87 (Table 7 No. 23)",0.5 µg/mL
same,MIC,"S. epidermidis MSSE; Staphylococcus epidermidis, strain S. ep MSSE88 (Table 8 No. 5)",2 µg/mL
same,MIC,"S. epidermidis MSSE; Staphylococcus epidermidis, strain S. ep MSSE113 (Table 7 No. 24)",1 µg/mL
same,MIC,"S. epidermidis MSSE; Staphylococcus epidermidis, strain S. ep MSSE116 (Table 7 No. 25)",0.5 µg/mL
same,MIC,"S. epidermidis MSSE; Staphylococcus epidermidis, strain S. ep MSSE118 (Table 8 No. 2)",2 µg/mL
same,MIC,"S. epidermidis MSSE; Staphylococcus epidermidis, strain S. ep MSSE119 (Table 7 No. 27)",1 µg/mL
same,MIC,"S. epidermidis MSSE; Staphylococcus epidermidis, strain S. ep MSSE137 (Table 8 No. 4)",2 µg/mL
same,MIC,"S. epidermidis MSSE; Staphylococcus epidermidis, strain S. ep MSSE140 (Table 8 No. 3)",2 µg/mL
same,MIC,"S. epidermidis MSSE; Staphylococcus epidermidis, strain S. ep MSSE142 (Table 7 No. 26)",1 µg/mL
same,MIC,"S. epidermidis MSSE; Staphylococcus epidermidis, strain S. ep MSSE153 (Table 8 No. 1)",1 µg/mL
same,MIC50,E. feacalis,1 µg/mL
same,MIC90,E. feacalis,2 µg/mL
same,MICrange,"E. feacalis; E. feacalis (5 strains), clinically isolated",1 to 2 µg/mL
same,MIC,E. feacalis; strain Efa 54 (Table 8 No. 20),1 µg/mL
same,MIC,E. feacalis; strain Efa 116 (Table 8 No. 16),1 µg/mL
same,MIC,E. feacalis; strain Efa 907 (Table 8 No. 19),1 µg/mL
same,MIC,E. feacalis; strain Efa 3006 (Table 8 No. 18),1 µg/mL
same,MIC,E. feacalis; strain Efa 33748 (Table 8 No. 17),2 µg/mL
same,MIC,Staphylococcus aureus,2 µg/mL

# From US8916567B2, “Certain crystalline hydrates, pharmaceutical compositions thereof and methods for preparation and use thereof” (Universal Technology Alliance, Inc., priority 2009, dated 2014)
